In paper PMC5753150 (Beilstein Journal of Organic Chemistry, 2017):
“Also recorded” adds a separate entry of the source. Blank lines part the entries; values can stand above or below the molecule they belong to. *1 amine or outer side, *2 acyl side, *3 side chain or, on linkers, in order; H or OH if unused. Where a SMILES comes first, the peptide text is derived from it. [ ]: non-standard residue; d: D form. Leu(5,5,5,5',5',5'-F6) = N[C@@H](CC(C(F)(F)F)C(F)(F)F)C(=O)O; X1 = C[C@@H](CC(F)(F)F)[C@H](N[*:1])C(=O)[*:2]; 2Abz = Nc1ccccc1C(=O)O

Legend:
[1] = target: pepsin (EC 3.4.23.1) (Sus scrofa, UniProt P00791); experiment: in vitro; settings: for Percentage of substrate remaining after incubation for 24 h: pepsin (porcine stomach mucosa), 10 mM acetate buffer pH 4.0 with DMSO, 30 °C, FL-RP-HPLC peak integration (Abz, λex 320/λem 420 nm), average of three independent measurements
pepsin (EC 3.4.23.1) (Sus scrofa, UniProt P00791), sequence (P00791 60-385): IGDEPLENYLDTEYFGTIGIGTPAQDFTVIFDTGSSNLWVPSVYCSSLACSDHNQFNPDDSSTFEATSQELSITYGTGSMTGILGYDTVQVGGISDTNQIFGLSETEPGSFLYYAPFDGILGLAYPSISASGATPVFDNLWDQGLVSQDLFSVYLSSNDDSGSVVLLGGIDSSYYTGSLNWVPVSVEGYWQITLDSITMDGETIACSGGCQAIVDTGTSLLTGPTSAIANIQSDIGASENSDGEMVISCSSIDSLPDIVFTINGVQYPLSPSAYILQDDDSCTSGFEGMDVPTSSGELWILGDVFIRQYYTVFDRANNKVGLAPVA
Experimental: (§1) The course of proteolytic digestion was characterized by an analytical HPLC-assay with fluorescence detection. For quantification of substrate degradation, integration of the corresponding HPLC peak was conducted. Cleavage products were identified by ESI–ToF mass spectrometry (see Supporting Information File 1, Tables S4–S7).
(§2) All peptides employed in the degradation studies were used as the TFA salts obtained after lyophilization. Stock solutions of α-chymotrypsin (from bovine pancreas, EC 3.4.21.1, ≥40.0 units/mg of protein, Sigma Aldrich, St. Louis, MO, USA), and pepsin (from porcine stomach mucosa, EC 3.4.23.1, ≥250 units/mg of protein, Sigma Aldrich, St. Louis, MO, USA) were prepared at concentrations of 1 mg/mL in phosphate buffer (10 mM, pH 7.4), or in acetate buffer (10 mM, pH 4.0), respectively. For proteinase K (from tritirachium album, EC 3.4.21.64, ≥30 units/mg of protein, Sigma Aldrich, St. Louis, MO, USA) and elastase (from porcine pancreas, EC 3.4.21.36, 6.2 units/mg of protein, Sigma Aldrich, St. Louis, MO, USA) stock solutions were prepared also at concentrations of 1 mg/mL in tris/HCl (50 mM) + CaCl2 (10 mM) buffer (pH 7.5), or in tris/HCl buffer (100 mM, pH 8.4), respectively. Peptides (0.002 mmol) were prepared as stocks in DMSO (100 µL) and incubated with the respective enzyme at 30 °C (for α-chymotrypsin and pepsin) or 37 °C (for proteinase K and elastase) with shaking at 300 rpm in a thermomixer over a period of 24 h. The reaction mixture consisted of DMSO (15 µL), corresponding buffer (25 µL), peptide solution (5 µL) and the corresponding enzyme solution (5 µL). […] Aliquots of 5 µL were taken at fixed time points (0, 15, 30, 60, 90, 120 min as well as 3 h and 24 h) and either quenched with ACN containing 0.1% (v/v) TFA (95 µL), in the case of α-chymotrypsin, proteinase K and elastase, or 2% aqueous ammonia (95 µL), in the case of pepsin. All samples were subjected to analytical HPLC on a LaChrom-ELITE-HPLC-System equipped with a fluorescence detector (VWR International Hitachi, Darmstadt, Germany). A monolithic reversed-phase C8 Chromolith® Performance HPLC column (100 × 4.6 mm, Merck KGaA, Darmstadt, Germany) was used to resolve and quantify the products of digestion. The used system and gradients are described in detail in Supporting Information File 1. Detection based on the Abz label was carried out using a fluorescence detector with λex = 320 nm and λem = 420 nm. In all cases, the peaks corresponding to the starting materials (full-length peptides) or the N-terminal fragments (products) were integrated and used to determine the velocity of the reaction (see Supporting Information File 1). […] Each fragment cleaved from the full-length peptide was identified by ESI–ToF mass analysis on an Agilent 6220 ESI–ToF–MS spectrometer (Agilent Technologies, Santa Clara, CA, USA, see Supporting Information File 1). All experiments were performed in triplicate.
(§3) 2130) with solvent degasser, an autosampler (L-2200) with a 100 µL sample loop, a diode array flow detector (L-2455), a fluorescence detector (L-2485) and a high pressure gradient mixer. As eluents water and ACN, both containing 0.1% (v/v) TFA were used, and a flow rate of 3 mL/min was applied. The used linear gradients are […]
(§4) For the non-fluorinated peptides method A was used to follow the digestion process, and for the fluorinated peptides method B was applied. For […]
(§5) The obtained data were analyzed with EZChrom Elite software
(§6) (version 3.3.2, Agilent Technologies, Santa Clara, CA, USA).

[2] = in vitro; settings: pig, pepsin from porcine stomach mucosa, pH 4
Experimental: as §1, §2, §3, §4, §5, §6

[3] = target: T1, proteinase K (EC 3.4.21.64) (Parengyodontium album, UniProt P06873); experiment: Protease digestion assay with proteinase K (FL-RP-HPLC); format: in vitro ADME, tritirachium album; settings: for Gain in stability upon fluorination compared to the non-fluorinated analogue, 120 min: after 120 min
T1 construct: purchased Sigma Aldrich; host or cells: Tritirachium album
T1 sequence (P06873 106-384): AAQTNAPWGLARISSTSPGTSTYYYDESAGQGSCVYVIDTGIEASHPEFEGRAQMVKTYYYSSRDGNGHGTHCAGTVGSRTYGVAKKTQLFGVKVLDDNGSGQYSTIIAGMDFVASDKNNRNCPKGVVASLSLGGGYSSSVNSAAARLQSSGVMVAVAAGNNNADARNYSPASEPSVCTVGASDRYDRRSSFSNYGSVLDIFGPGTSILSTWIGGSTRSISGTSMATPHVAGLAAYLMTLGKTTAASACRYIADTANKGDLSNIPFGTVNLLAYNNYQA
Experimental: (§7) The FA peptide was used as a reference. […] All experiments were performed in triplicate.
(§8) The used linear gradients are
(§9) chromatograms where an insufficient baseline separation was observed,
(§10) (proteinase K)]. The obtained data were analyzed with EZChrom Elite software
(§11) Method Time [min] Water + 0.1% (v/v) TFA [%] ACN + 0.1% (v/v) TFA [%]

[4] = target: T2, α-chymotrypsin (EC 3.4.21.1) (Bos taurus, UniProt P00766); experiment: Protease digestion assay with α-chymotrypsin (FL-RP-HPLC); format: in vitro ADME, bovine; settings: for Percentage of substrate remaining after incubation for 24 h: α-chymotrypsin (bovine pancreas), 10 mM phosphate buffer pH 7.4 with DMSO, 30 °C, FL-RP-HPLC peak integration (Abz, λex 320/λem 420 nm), average of three independent measurements; for Gain in proteolytic stability upon fluorination compared to the non-fluorinated (Leu or Ile) analogue: after 24 h
T2 construct: purchased Sigma Aldrich; host or cells: bovine pancreas
Experimental: as §7, §8, §9, §10, §11

[5] = target: elastase (EC 3.4.21.36) (Sus scrofa, UniProt P00772)
elastase (EC 3.4.21.36) (Sus scrofa, UniProt P00772), sequence (P00772 27-266): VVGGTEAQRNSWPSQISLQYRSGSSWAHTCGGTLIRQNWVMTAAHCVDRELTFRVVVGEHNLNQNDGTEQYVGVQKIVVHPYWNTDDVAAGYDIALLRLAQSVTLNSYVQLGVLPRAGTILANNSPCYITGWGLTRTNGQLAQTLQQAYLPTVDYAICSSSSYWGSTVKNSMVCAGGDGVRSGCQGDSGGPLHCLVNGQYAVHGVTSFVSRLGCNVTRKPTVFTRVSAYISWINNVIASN
Experimental: as §1, §2, §3, §4, §5, §6

[6] = test system: elastase (EC 3.4.21.36); experiment: elastase in 100 mM Tris/HCl buffer, pH 8.4; settings: porcine pancreas, 37 °C, up to 24 h
[7] = test system: elastase (from porcine pancreas, EC 3.4.21.36); experiment: elastase in 100 mM Tris/HCl buffer, pH 8.4; settings: 37 °C, up to 24 h
[8] = test system: pepsin (EC 3.4.23.1); experiment: pepsin in 10 mM acetate buffer, pH 4.0; settings: porcine stomach mucosa, 30 °C, up to 24 h
[9] = test system: α-chymotrypsin (EC 3.4.21.1); experiment: α-chymotrypsin in 10 mM phosphate buffer, pH 7.4; settings: bovine pancreas, 30 °C, up to 24 h
[10] = test system: proteinase K (EC 3.4.21.64); experiment: proteinase K in 50 mM Tris/HCl buffer, containing 10 mM CaCl2 pH 7.5; settings: tritirachium album, 37 °C, up to 24 h
[11] = pepsin, 10 mM acetate buffer pH 4.0, 30 °C, after 24 h
[12] = proteinase K, 50 mM Tris/HCl + 10 mM CaCl2 pH 7.5, 37 °C
[13] = α-chymotrypsin, 10 mM phosphate buffer pH 7.4, 30 °C, FL-RP-HPLC
[14] = pepsin, 10 mM acetate buffer pH 4.0, 30 °C, 120 min, FL-RP-HPLC
[15] = elastase (porcine pancreas), 100 mM Tris/HCl buffer pH 8.4 with DMSO, 37 °C, FL-RP-HPLC, mean of three independent measurements
[16] = proteinase K, 50 mM Tris/HCl + 10 mM CaCl2 pH 7.5, 37 °C, 120 min, FL-RP-HPLC
[17] = α-chymotrypsin, 10 mM phosphate buffer pH 7.4, 30 °C, FL-RP-HPLC, three independent measurements

Molecule: C[C@H](NC(=O)[C@H](C)NC(=O)[C@H](C)NC(=O)[C@H](Cc1ccccc1)NC(=O)[C@@H](NC(=O)[C@H](C)NC(=O)[C@H](CCCCN)NC(=O)c1ccccc1N)[C@@H](C)CC(F)(F)F)C(=O)N[C@@H](C)C(=O)N[C@@H](CCCCN)C(=O)O [P2-TfIleFA] (H-[2Abz]KA[X1]FAAAAK-OH)
gain in stability vs non-fluorinated analogue after 24 h: 35%
Gain in proteolytic stability upon fluorination compared to the non-fluorinated analogue, 24 h [1, 11]: 100%
remaining at 24 h, 2 mM [2]: 100%
Percentage of substrate remaining after incubation for 24 h ([3]; proteinase K (tritirachium album), 50 mM Tris/HCl buffer containing 10 mM CaCl2 pH 7.5 with DMSO, 37 °C, 24 h, FL-RP-HPLC peak integration (Abz fluorescence), mean of three independent measurements): still left; also recorded: remarkably stable
Gain in stability upon fluorination compared to the non-fluorinated analogue, 120 min [3, 12]: 60%
Percentage of substrate remaining after incubation for 24 h ([4]; 24 h): not digested at all
Gain in proteolytic stability upon fluorination compared to the non-fluorinated (Leu or Ile) analogue [4, 13]: 50%

Molecule: C[C@H](NC(=O)[C@H](C)NC(=O)[C@H](CC(C(F)(F)F)C(F)(F)F)NC(=O)[C@H](Cc1ccccc1)NC(=O)[C@H](C)NC(=O)[C@H](C)NC(=O)[C@H](CCCCN)NC(=O)c1ccccc1N)C(=O)N[C@@H](C)C(=O)N[C@@H](CCCCN)C(=O)O [P1’-HfLeuFA] (H-[2Abz]KAAF[Leu(5,5,5,5',5',5'-F6)]AAAK-OH)
Proteolytic stability compared to control peptide FA after 120 min [1, 14]: same persistence
Proteolytic stability compared to control peptide FA after 24 h ([1]; pepsin, 10 mM acetate buffer pH 4.0, 30 °C, 24 h, FL-RP-HPLC): somewhat more stable than the control FA
Stabilization upon fluorination compared to the non-fluorinated analogue, 120 min ([1]; pepsin, 10 mM acetate buffer pH 4.0, 30 °C, after 120 min): about 20%
Destabilization compared to the hydrocarbon analogue, 24 h [1, 11]: 17%
Proteolytic stability compared to control peptide FA after 24 h ([5]; elastase, 100 mM Tris/HCl buffer pH 8.4, 37 °C, 24 h, FL-RP-HPLC): more stable than the control peptide FA
Gain in stability upon fluorination compared to the non-fluorinated (Leu or Ile) analogue, 24 h ([5]; elastase, 100 mM Tris/HCl buffer pH 8.4, 37 °C, after 24 h): 85%
Gain in proteolytic stability upon fluorination compared to the non-fluorinated (Leu or Ile) analogue [4, 13]: better substrate than the non-fluorinated Leu peptide

Molecule: Abz-KAAFATfIleAAK [P2’-TfIleFA, FA variant with 5,5,5-trifluoroisoleucine at position P2’]
Percentage of substrate remaining after incubation for 24 h ([1]; 24 h): completely digested
Proteolytic stability compared to control peptide FA after 120 min [1, 14]: degraded faster than the control FA
Degradation state after incubation for 120 min [5, 15]: somewhat digested
Gain in stability upon fluorination compared to the non-fluorinated analogue, 120 min [3, 12]: around 12%

Molecule: CC[C@H](C)[C@H](NC(=O)[C@H](C)NC(=O)[C@H](Cc1ccccc1)NC(=O)[C@H](C)NC(=O)[C@H](C)NC(=O)[C@H](CCCCN)NC(=O)c1ccccc1N)C(=O)N[C@@H](C)C(=O)N[C@@H](C)C(=O)N[C@@H](CCCCN)C(=O)O [P2’-IleFA] (H-[2Abz]KAAFAIAAK-OH)
Percentage of substrate remaining after incubation for 24 h ([1]; 24 h): completely digested
Proteolytic stability compared to control peptide FA after 120 min [1, 14]: degraded faster than the control FA
Degradation state after incubation for 120 min [5, 15]: somewhat digested
Percentage of substrate remaining after incubation for 24 h ([5]; elastase (porcine pancreas), 100 mM Tris/HCl buffer pH 8.4 with DMSO, 37 °C, 24 h, FL-RP-HPLC peak integration (Abz fluorescence), mean of three independent measurements): almost complete proteolysis
Proteolytic stability compared to control peptide FA after 120 min [3, 16]: as stable as FA
Proteolytic stability compared to control peptide FA after 120 min [4, 17]: more stable against digestion
Proteolytic stability compared to control peptide FA after 24 h ([4]; α-chymotrypsin, 10 mM phosphate buffer pH 7.4, 30 °C, 24 h, FL-RP-HPLC, three independent measurements): accelerated proteolysis compared to FA

Molecule: C[C@H](NC(=O)[C@H](C)NC(=O)[C@H](C)NC(=O)[C@H](Cc1ccccc1)NC(=O)[C@H](CC(C(F)(F)F)C(F)(F)F)NC(=O)[C@H](C)NC(=O)[C@H](CCCCN)NC(=O)c1ccccc1N)C(=O)N[C@@H](C)C(=O)N[C@@H](CCCCN)C(=O)O [P2-HfLeuFA] (H-[2Abz]KA[Leu(5,5,5,5',5',5'-F6)]FAAAAK-OH)
gain in stability vs non-fluorinated analogue after 24 h: 19%
Percentage of substrate remaining after incubation for 24 h ([4]; 24 h): not digested at all
Gain in proteolytic stability upon fluorination compared to the non-fluorinated (Leu or Ile) analogue [4, 13]: ~100%

Molecule: C[C@H](NC(=O)[C@H](C)NC(=O)[C@H](CC(C(F)(F)F)C(F)(F)F)NC(=O)[C@H](C)NC(=O)[C@H](Cc1ccccc1)NC(=O)[C@H](C)NC(=O)[C@H](C)NC(=O)[C@H](CCCCN)NC(=O)c1ccccc1N)C(=O)N[C@@H](CCCCN)C(=O)O [P2’-HfLeuFA] (H-[2Abz]KAAFA[Leu(5,5,5,5',5',5'-F6)]AAK-OH)
Peptide digested (hydrolysis) after 120 min ([1]; pepsin, 10 mM acetate buffer pH 4.0, 30 °C, 120 min, FL-RP-HPLC, enzyme concentration optimized to about 40% hydrolysis of FA): up to 5%
remaining at 24 h, 2 mM [2]: ~76%
Degradation state after incubation for 120 min [3, 16]: almost completely degraded
Percentage of substrate remaining after incubation for 24 h ([4]; 24 h): up to 44%
Proteolytic stability compared to control peptide FA after 120 min [4, 17]: more stable against digestion

cleaved bond [6]: A-A and A-Leu and A-K
not cleaved [7]: no fragments with Phe in P1 observed
cleaved bond [8]: F-A
cleaved bond [9]: F-A, major
cleaved bond [10]: A-F and Leu-A
Molecule: Abz-KAAFALeuAAK
